From the supplement of paper PMC4862054

Experiments:
Details in all cases: incubation time: 72 h
CAL-85-1 [1] = assay: normalised viability (% of control), CellTiter-Blue; higher = more viable cells (about 100 = DMSO control)
Method in brief: (§1)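 Breast cancer cell lines were treated for 72 h in 384-well format and measured by CellTiter-Blue fluorescence at 560/590 nm. Results were normalised per plate to vehicle (100) and a positive kill control (0). The entry is normalised viability at a single listed concentration of the series.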

SK-BR-3 = assay: as above
Method in brief: as §1

MDA-MB-436 [2] = assay: as above
Method in brief: as §1

BT-474 [3] = assay: as above
Method in brief: as §1

HCC1599 [4] = assay: as above
Method in brief: as §1

CAL-120 = assay: as above
Method in brief: as §1

MDA-MB-468 = assay: as above
Method in brief: as §1

CAL-51 = assay: normalised response (% of control), CellTox Green; higher = less cell death (100 = DMSO, 0 = benzethonium chloride kill control)
Method in brief: (§2)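 In 384-well plates holding compound at 5 concentrations in 10-fold steps over a 10,000-fold range specific to each compound, breast cancer cell lines were seeded as 20 µl suspension and incubated 72 h. CellTox Green fluorescence was measured at 485/520 nm, after which CellTiter-Glo luminescence was measured following 10 min at room temperature. Plate signals were normalised to 0.1 % DMSO (100) and a positive kill control (0), and each value is the normalised signal at a single concentration.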

MDA-MB-231 = assay: as above
Method in brief: as §2

CAL-85-1 [5] = assay: as above
Method in brief: as §2

HCC1937 = assay: as above
Method in brief: as §2

CAL-148 = assay: as above
Method in brief: as §2

Hs578T = assay: as above
Method in brief: as §2

MDA-MB-436 [6] = assay: as above
Method in brief: as §2

BT-474 [7] = assay: as above
Method in brief: as §2

HCC1143 = assay: as above
Method in brief: as §2

MDA-MB-453 = assay: as above
Method in brief: as §2

BT-549 = assay: as above
Method in brief: as §2

HCC1599 [8] = assay: as above
Method in brief: as §2

MFM-223 = assay: as above
Method in brief: as §2

HDQ-P1 = assay: as above
Method in brief: as §2

SMILES: Cc1c(N)nc([C@H](CC(N)=O)NC[C@H](N)C(N)=O)nc1C(=O)N[C@H](C(=O)N[C@H](C)[C@@H](O)[C@H](C)C(=O)N[C@H](C(=O)NCCc1nc(-c2nc(C(=O)NCCC[S+](C)C)cs2)cs1)[C@@H](C)O)[C@@H](OC1OC(CO)C(O)C(O)C1OC1OC(CO)C(O)C(OC(N)=O)C1O)c1cnc[nH]1 (stereo partly specified) [Bleomycin]
- normalised viability (CAL-85-1 [1]; 3 nM): 101%
- normalised viability (CAL-85-1 [1]; 30 nM): 94.9%
- normalised viability (CAL-85-1 [1]; 100 nM): 96.6%
- normalised viability (SK-BR-3; 10 nM): 89.6%
- normalised viability (SK-BR-3; 1000 nM): 99.1%
- normalised viability (SK-BR-3; 10000 nM): 89.5%
- normalised viability (MDA-MB-436 [2]; 10 nM): 92.3%
- normalised viability (MDA-MB-436 [2]; 1000 nM): 79%
- normalised viability (MDA-MB-436 [2]; 10000 nM): 44.7%
- normalised viability (BT-474 [3]; 10 nM): 102%
- normalised viability (BT-474 [3]; 1000 nM): 97.9%
- normalised viability (BT-474 [3]; 10000 nM): 98%
- normalised viability (HCC1599 [4]; 10 nM): 134%
- normalised viability (HCC1599 [4]; 1000 nM): 112%
- normalised viability (HCC1599 [4]; 10000 nM): 118%
- normalised viability (CAL-120; 10 nM): 94.4%
- normalised viability (CAL-120; 1000 nM): 78.5%
- normalised viability (CAL-120; 10000 nM): 67.7%
- normalised viability (MDA-MB-468; 10 nM): 94.6%
- normalised viability (MDA-MB-468; 1000 nM): 86.6%
- normalised viability (MDA-MB-468; 10000 nM): 72.7%

SMILES: Cc1c(N)nc([C@H](CC(N)=O)NC[C@H](N)C(N)=O)nc1C(=O)N[C@H](C(=O)N[C@H](C)[C@@H](O)[C@H](C)C(=O)N[C@H](C(=O)NCCc1nc(-c2nc(C(=O)NCCC[S+](C)C)cs2)cs1)[C@@H](C)O)[C@@H](OC1OC(CO)C(O)C(O)C1OC1OC(CO)C(O)C(OC(N)=O)C1O)c1cnc[nH]1 (stereo partly specified) [Bleomycin] (10000 nM)
- normalised response (CAL-51): 43.9%
- normalised response (MDA-MB-231): 78%
- normalised response (CAL-85-1 [5]): 81.7%
- normalised response (HCC1937): 80.1%
- normalised response (CAL-148): 47.9%
- normalised response (Hs578T): 24.7%
- normalised response (MDA-MB-436 [6]): 68%
- normalised response (BT-474 [7]): 93.2%
- normalised response (HCC1143): 93.6%
- normalised response (MDA-MB-453): 90.6%
- normalised response (BT-549): 82.7%
- normalised response (HCC1599 [8]): 84%
- normalised response (MFM-223): 94.4%
- normalised response (HDQ-P1): 95.6%

SMILES: Cc1cc2c(F)c(Oc3ncnn4cc(OC[C@@H](C)O)c(C)c34)ccc2[nH]1 [Brivanib]
- normalised viability (CAL-85-1 [1]; 0.3 nM): 88.4%
- normalised viability (CAL-85-1 [1]; 3 nM): 86.2%
- normalised viability (CAL-85-1 [1]; 10 nM): 89.1%
- normalised viability (SK-BR-3; 1 nM): 98.8%
- normalised viability (SK-BR-3; 100 nM): 112%
- normalised viability (SK-BR-3; 1000 nM): 113%
- normalised viability (MDA-MB-436 [2]; 1 nM): 113%
- normalised viability (MDA-MB-436 [2]; 100 nM): 93%
- normalised viability (MDA-MB-436 [2]; 1000 nM): 96.4%
- normalised viability (BT-474 [3]; 1 nM): 112%
- normalised viability (BT-474 [3]; 100 nM): 117%
- normalised viability (BT-474 [3]; 1000 nM): 94.5%
- normalised viability (HCC1599 [4]; 1 nM): 87.1%
- normalised viability (HCC1599 [4]; 100 nM): 100%
- normalised viability (HCC1599 [4]; 1000 nM): 116%
- normalised viability (CAL-120; 1 nM): 89.3%
- normalised viability (CAL-120; 100 nM): 82.5%
- normalised viability (CAL-120; 1000 nM): 93.2%
- normalised viability (MDA-MB-468; 1 nM): 93.7%
- normalised viability (MDA-MB-468; 100 nM): 111%
- normalised viability (MDA-MB-468; 1000 nM): 112%

SMILES: Cc1cc2c(F)c(Oc3ncnn4cc(OC[C@@H](C)O)c(C)c34)ccc2[nH]1 [Brivanib] (1000 nM)
- normalised response (CAL-51): 101%
- normalised response (MDA-MB-231): 102%
- normalised response (CAL-85-1 [5]): 67.4%
- normalised response (HCC1937): 112%
- normalised response (CAL-148): 99.3%
- normalised response (Hs578T): 98.4%
- normalised response (MDA-MB-436 [6]): 68.3%
- normalised response (BT-474 [7]): 97.9%
- normalised response (HCC1143): 104%
- normalised response (MDA-MB-453): 92.5%
- normalised response (BT-549): 95.7%
- normalised response (HCC1599 [8]): 80.2%
- normalised response (MFM-223): 98.6%
- normalised response (HDQ-P1): 68.8%

SMILES: CCCCCOC(=O)Nc1nc(=O)n([C@@H]2O[C@H](C)[C@@H](O)[C@H]2O)cc1F [Capecitabine] (10000 nM)
- normalised response (CAL-51): 99.4%
- normalised response (MDA-MB-231): 110%
- normalised response (CAL-85-1 [5]): 87.2%
- normalised response (HCC1937): 87.1%
- normalised response (CAL-148): 99.5%
- normalised response (Hs578T): 56.1%
- normalised response (MDA-MB-436 [6]): 103%
- normalised response (BT-474 [7]): 97.2%
- normalised response (HCC1143): 122%
- normalised response (MDA-MB-453): 104%
- normalised response (BT-549): 117%
- normalised response (HCC1599 [8]): 102%
- normalised response (HDQ-P1): 94.7%

SMILES: CC(C)C[C@H](NC(=O)[C@H](CCc1ccccc1)NC(=O)CN1CCOCC1)C(=O)N[C@@H](Cc1ccccc1)C(=O)N[C@@H](CC(C)C)C(=O)[C@@]1(C)CO1 [Carfilzomib] (1000 nM)
- normalised response (CAL-51): 15.1%
- normalised response (MDA-MB-231): -0.32%
- normalised response (CAL-85-1 [5]): -74.2%
- normalised response (HCC1937): 32.8%
- normalised response (CAL-148): 12.2%
- normalised response (Hs578T): -63.5%
- normalised response (MDA-MB-436 [6]): 38.2%
- normalised response (BT-474 [7]): 45.7%
- normalised response (HCC1143): 72.1%
- normalised response (MDA-MB-453): 91.3%
- normalised response (BT-549): 62.5%
- normalised response (HCC1599 [8]): 99.5%
- normalised response (MFM-223): 55.2%
- normalised response (HDQ-P1): -14.6%

SMILES: Nc1nc(Cl)nc2c1ncn2[C@@H]1O[C@H](CO)[C@@H](O)[C@@H]1F [Clofarabine] (10000 nM)
- normalised response (CAL-51): 40.6%
- normalised response (MDA-MB-231): 90.7%
- normalised response (CAL-85-1 [5]): 60.5%
- normalised response (HCC1937): 75.6%
- normalised response (CAL-148): 65.1%
- normalised response (Hs578T): 142%
- normalised response (MDA-MB-436 [6]): 65.6%
- normalised response (BT-474 [7]): 105%
- normalised response (HCC1143): 106%
- normalised response (MDA-MB-453): 95.2%
- normalised response (BT-549): 87.3%
- normalised response (HCC1599 [8]): 93.9%
- normalised response (MFM-223): 102%
- normalised response (HDQ-P1): 112%

SMILES: CCN(CC)CCOc1ccc(C(=C(Cl)c2ccccc2)c2ccccc2)cc1 [Clomifene] (10000 nM)
- normalised response (CAL-51): 109%
- normalised response (MDA-MB-231): -87.9%
- normalised response (CAL-85-1 [5]): 25.3%
- normalised response (HCC1937): -34.5%
- normalised response (CAL-148): 79.6%
- normalised response (Hs578T): -60.1%
- normalised response (MDA-MB-436 [6]): 89.1%
- normalised response (BT-474 [7]): 5.17%
- normalised response (HCC1143): 112%
- normalised response (MDA-MB-453): 18.9%
- normalised response (BT-549): 82.5%
- normalised response (HCC1599 [8]): 48.6%
- normalised response (MFM-223): 40.9%

SMILES: C[C@@H]1C[C@H]2[C@@H]3CCC4=CC(=O)C=C[C@]4(C)[C@@]3(F)[C@@H](O)C[C@]2(C)[C@@]1(O)C(=O)CO [Dexamethasone] (10000 nM)
- normalised response (CAL-51): 103%
- normalised response (MDA-MB-231): 139%
- normalised response (CAL-85-1 [5]): 130%
- normalised response (HCC1937): 61.1%
- normalised response (CAL-148): 100%
- normalised response (Hs578T): 87.4%
- normalised response (MDA-MB-436 [6]): 97.4%
- normalised response (BT-474 [7]): 94%
- normalised response (HCC1143): 51.4%
- normalised response (MDA-MB-453): 100%
- normalised response (BT-549): 100%
- normalised response (HCC1599 [8]): 94.4%
- normalised response (MFM-223): 101%
- normalised response (HDQ-P1): 99.2%

SMILES: CC(C)C(=O)Nc1ccc([N+](=O)[O-])c(C(F)(F)F)c1 [Flutamide] (10000 nM)
- normalised response (CAL-51): 100%
- normalised response (MDA-MB-231): 112%
- normalised response (CAL-85-1 [5]): 103%
- normalised response (HCC1937): 101%
- normalised response (Hs578T): 124%
- normalised response (MDA-MB-436 [6]): 75.1%
- normalised response (BT-474 [7]): 92.6%
- normalised response (HCC1143): 96.4%
- normalised response (MDA-MB-453): 102%
- normalised response (BT-549): 111%
- normalised response (HCC1599 [8]): 103%
- normalised response (MFM-223): 89%
- normalised response (HDQ-P1): 92.3%
